Measurements: BigSolDB 2.1

Settings: in acetic acid

CO[C@H]1/C=C/O[C@@]2(C)Oc3c(C)c(O)c4c(O)c(c(/C=N/N5CCN(C6CCCC6)CC5)c(O)c4c3C2=O)NC(=O)/C(C)=C\C=C\[C@H](C)[C@H](O)[C@@H](C)[C@@H](O)[C@@H](C)[C@H](OC(C)=O)[C@@H]1C
Settings	solubility (mole fraction)
278.15 K	0.0523
283.15 K	0.0558
288.15 K	0.0595
293.15 K	0.0632
297.15 K	0.067
303.15 K	0.0707
308.15 K	0.0755
313.15 K	0.0805
318.15 K	0.0858
323.15 K	0.0913
